{"source": "patent US11965219B2", "about": "“Process and apparatus for reduction in microbial growth in solutions of sugars extracted from waste materials” (UNIVERSITY OF LEEDS, priority 2018, dated 2024)", "system": "microbial growth in solutions of sugar", "test": "Microbial contamination control procedure: dissolved oxygen and pH monitoring of solutions of sugars after adding a sterilisation agent", "description": "The process described is based upon the Fiberight industrial scale process, modified for a 1 litre reaction vessel. The amount of organic substrate used in the process is dependent on the required total solids (TS) content of the process. Typically, TS will be between 5-25%. TS is calculated using the required reaction mass and the solids content of the organic substrate, which is typically between 10-70%. (For a reaction mass of 1 kg, with a required TS of 8% (w/w), using organic substrate with a solids content of 32% (w/w), the amount of organic substrate needed for the process is 250 g). The organic substrate is sterilised in an autoclave at 125° C. for 1 hour immediately prior to use.\nThe reaction vessel is sterilised prior to use by filling with […] and stirring for 1 hour. The ethanol is then drained and the heating jacket set to 50° C. prior to addition of the reaction components (water, organic substrate, and enzyme).\nThe organic substrate is added to a preheated reaction vessel (50° C.) in one portion followed by sterilised water (the mass of water required=total reaction mass−mass of organic substrate) and stirred at between 200-600 RPM, depending on TS (higher TS requires a higher RPM to ensure thorough mixing). […] DO readings are taken throughout the process and are typically between 3-8 mg/L if no contamination is present. […] Typically this stops after T=3 hours and maintains linear readings. If contamination occurs the DO reading can drop to 0 mg/L, which typically happens between T=5-8 hours. […]\nSeveral sterilisation agents have been tested to determine their effectiveness in controlling microbial growth in solutions of sugar. The sterilisation agents were either introduced at T=0 or at the point that microbial growth is observed, which can be measured by the DO sensor. Typically, contamination can be said to occur when the DO reading starts to drop exponentially, eventually reaching 0 mg/L if no sterilisation agent is added. In these tests, software was used to monitor the DO readings and trigger the addition of an antimicrobial. […]", "data": [{"smiles": "[O][Cl+][O-]", "note": "[chlorine dioxide]", "values": [{"measurement": "dissolved oxygen and pH levels / microbial growth", "setting": "0.05 wt % added at T=5 hrs 45 mins, T=50 hrs 30 mins and T=73 hrs 30 mins, FIG. 7", "value": "stabilise dissolved oxygen and pH levels, thereby preventing further microbial growth"}, {"measurement": "dissolved oxygen and pH levels / microbial growth", "setting": "0.35 wt % added at T=8 hrs 45 mins in a single aliquot, FIG. 6", "value": "stabilise dissolved oxygen and pH levels, thereby preventing further microbial growth"}, {"measurement": "pH drop (evidence of lactic acid production)", "setting": "added in response to the drop in dissolved oxygen, FIGS. 6 and 7", "value": "prevented"}]}]}
